≈ marks a conversion by molar mass, not a printed value. Calls of active or inactive are those of the source. The rule behind the calls is not given here.
Tests used:
[1] = target: T1, Prostaglandin D2 receptor 2 (Homo sapiens, UniProt Q9Y5Y4); experiment: Antagonist activity at CRTh2 (unknown origin) stably expressed in PGD2-stimulated CHO.K1 cells preincubated for 1 hr by radio-labelled [35S]-GTPgammaS binding assay; type: functional, cell-based
T1 sequence (Q9Y5Y4 whole entry): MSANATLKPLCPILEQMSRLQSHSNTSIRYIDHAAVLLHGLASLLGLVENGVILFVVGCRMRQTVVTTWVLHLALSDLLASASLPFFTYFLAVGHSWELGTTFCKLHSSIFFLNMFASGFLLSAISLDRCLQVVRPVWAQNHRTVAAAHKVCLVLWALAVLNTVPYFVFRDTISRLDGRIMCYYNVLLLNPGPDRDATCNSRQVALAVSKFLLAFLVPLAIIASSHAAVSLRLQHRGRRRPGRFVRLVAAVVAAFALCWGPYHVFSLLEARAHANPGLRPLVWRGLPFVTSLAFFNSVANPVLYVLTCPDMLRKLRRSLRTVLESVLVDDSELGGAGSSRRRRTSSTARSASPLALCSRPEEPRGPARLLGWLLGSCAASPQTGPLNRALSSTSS

[2] = target: T2, Prostaglandin D2 receptor (Homo sapiens) (UniProt Q13258); experiment: Inhibition of at prostanoid DP1 receptor (unknown origin) at 10 uM
T2 sequence (whole entry): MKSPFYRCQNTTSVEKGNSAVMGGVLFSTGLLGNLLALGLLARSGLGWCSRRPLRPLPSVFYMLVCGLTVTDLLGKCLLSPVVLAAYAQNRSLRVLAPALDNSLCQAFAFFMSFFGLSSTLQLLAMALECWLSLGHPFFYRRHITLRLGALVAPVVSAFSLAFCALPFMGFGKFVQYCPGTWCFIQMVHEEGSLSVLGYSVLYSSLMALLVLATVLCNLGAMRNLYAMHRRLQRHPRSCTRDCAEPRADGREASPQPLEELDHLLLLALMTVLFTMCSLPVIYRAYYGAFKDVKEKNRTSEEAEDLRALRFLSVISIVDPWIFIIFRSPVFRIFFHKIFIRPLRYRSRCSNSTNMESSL

[3] = target: T3, Thromboxane A2 receptor (Homo sapiens) (UniProt P21731); experiment: Inhibition of at prostanoid TP receptor (unknown origin) at 10 uM
T3 sequence (whole entry): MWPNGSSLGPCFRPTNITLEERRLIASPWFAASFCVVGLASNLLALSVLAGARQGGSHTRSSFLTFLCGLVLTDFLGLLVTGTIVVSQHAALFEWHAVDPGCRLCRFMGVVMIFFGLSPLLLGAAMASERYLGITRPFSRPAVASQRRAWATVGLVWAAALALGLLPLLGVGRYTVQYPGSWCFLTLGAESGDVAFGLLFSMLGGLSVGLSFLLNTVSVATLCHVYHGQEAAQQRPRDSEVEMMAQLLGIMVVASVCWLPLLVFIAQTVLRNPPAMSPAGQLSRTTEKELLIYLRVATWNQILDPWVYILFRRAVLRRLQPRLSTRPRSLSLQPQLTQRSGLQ

[4] = Dissociation constant, pKa of the compound by potentiometric method; type: physicochemical
[5] = Apparent permeability across apical to basolateral side of human Caco2 cells at pH 7.4; type: ADME, cell-based; details: Caco-2, pH 7.4
[6] = Cmax in rat at 1 mg/kg, iv; type: ADME, organism-based; design: dose 1 mg/kg, route intravenous; details: in vivo
[7] = Clearance in rat at 1 mg/kg, iv; type: ADME, organism-based; design: dose 1 mg/kg, route intravenous; details: in vivo
[8] = AUC (0 to infinity) in rat at 1 mg/kg, iv; type: ADME, organism-based; design: time infinity, dose 1 mg/kg, route intravenous; details: plasma
[9] = Volume of distribution at steady state in rat at 1 mg/kg, iv; type: ADME, organism-based; design: dose 1 mg/kg, route intravenous; details: in vivo, read-out: Vdss
[10] = Terminal half life in rat at 1 mg/kg, iv; type: ADME, organism-based; design: dose 1 mg/kg, route intravenous; details: in vivo, read-out: beta t1/2 (converted)
[11] = Cmax in rat at 10 mg/kg, po; type: ADME, organism-based; design: dose 10 mg/kg, route oral; details: in vivo
[12] = AUC (0 to infinity) in rat at 10 mg/kg, po; type: ADME, organism-based; design: time infinity, dose 10 mg/kg, route oral; details: plasma
[13] = Terminal half life in rat at 10 mg/kg, po; type: ADME, organism-based; design: dose 10 mg/kg, route oral; details: in vivo, read-out: beta t1/2 (converted)
[14] = Oral bioavailability in rat at 10 mg/kg; type: ADME, organism-based; details: in vivo
Cavia porcellus = organism: Cavia porcellus; experiment: Antiinflammatory activity in guinea pig eosinophilia model; type: functional, organism-based
[15] = target: T1, Prostaglandin D2 receptor 2; experiment: Antagonist activity at CRTh2 (unknown origin) stably expressed in CHO.K1 cells co-mixing the compound and PGD2 by radio-labelled [35S]-GTPgammaS binding assay; type: functional, cell-based
[16] = target: T1, Prostaglandin D2 receptor 2; experiment: Antagonist activity at CRTh2 (unknown origin) stably expressed in PGD2-stimulated CHO.K1 cells preincubated for 15 mins by radio-labelled [35S]-GTPgammaS binding assay; type: functional, cell-based
[17] = target: T1, Prostaglandin D2 receptor 2; experiment: Antagonist activity at CRTh2 (unknown origin) stably expressed in PGD2-stimulated CHO.K1 cells preincubated for 30 mins by radio-labelled [35S]-GTPgammaS binding assay; type: functional, cell-based
[18] = target: T1, Prostaglandin D2 receptor 2; experiment: Antagonist activity at CRTh2 (unknown origin) stably expressed in PGD2-stimulated CHO.K1 cells preincubated for 60 mins by radio-labelled [35S]-GTPgammaS binding assay; type: functional, cell-based
[19] = target: T1, Prostaglandin D2 receptor 2; experiment: Antagonist activity at CRTh2 (unknown origin) stably expressed in PGD2-stimulated CHO.K1 cells preincubated for 120 mins by radio-labelled [35S]-GTPgammaS binding assay; type: functional, cell-based
[20] = target: T1, Prostaglandin D2 receptor 2; experiment: Antagonist activity at CRTh2 (unknown origin) stably expressed in PGD2-stimulated CHO.K1 cells preincubated for 180 mins by radio-labelled [35S]-GTPgammaS binding assay; type: functional, cell-based
[21] = target: T4, Prostaglandin D2 receptor 2 (Homo sapiens) (UniProt Q9Y5Y4); details: CHO.K1
T4 sequence (whole entry): T1 sequence (Q9Y5Y4 whole entry)
Description: Antagonist activity at CRTh2 (unknown origin) stably expressed in PGD2-stimulated CHO.K1 cells assessed as dissociation half-life at 5 to 10 times IC50 after 2 hrs by radio-labelled [35S]-GTPgammaS binding assay

Rattus norvegicus [22] = experiment: Cmax in rat assessed as 2-(2-methyl-4-oxo-3-(2-(phenylsulfonyl)benzyl)-4,5,6,7-tetrahydro-1H-pyrrolo[3,2-c]pyridin-1-yl)acetic acid at 1 mg/kg, iv; type: ADME, organism-based; design: dose 1 mg/kg, route intravenous; details: in vivo
Rattus norvegicus [23] = experiment: AUC (0 to infinity) in rat assessed as 2-(2-methyl-4-oxo-3-(2-(phenylsulfonyl)benzyl)-4,5,6,7-tetrahydro-1H-pyrrolo[3,2-c]pyridin-1-yl)acetic acid at 1 mg/kg, iv; type: ADME, organism-based, Plasma; design: time infinity, dose 1 mg/kg, route intravenous; details: in vivo
Rattus norvegicus [24] = experiment: Volume of distribution at steady state in rat assessed as 2-(2-methyl-4-oxo-3-(2-(phenylsulfonyl)benzyl)-4,5,6,7-tetrahydro-1H-pyrrolo[3,2-c]pyridin-1-yl)acetic acid at 1 mg/kg, iv; type: ADME, organism-based; design: dose 1 mg/kg, route intravenous; details: in vivo
Rattus norvegicus [25] = experiment: Terminal half life in rat assessed as 2-(2-methyl-4-oxo-3-(2-(phenylsulfonyl)benzyl)-4,5,6,7-tetrahydro-1H-pyrrolo[3,2-c]pyridin-1-yl)acetic acid at 1 mg/kg, iv; type: ADME, organism-based; design: dose 1 mg/kg, route intravenous; details: in vivo
Rattus norvegicus [26] = experiment: Cmax in rat assessed as 2-(2-methyl-4-oxo-3-(2-(phenylsulfonyl)benzyl)-4,5,6,7-tetrahydro-1H-pyrrolo[3,2-c]pyridin-1-yl)acetic acid at 10 mg/kg, po; type: ADME, organism-based; design: dose 10 mg/kg, route oral; details: in vivo
Rattus norvegicus [27] = experiment: AUC (0 to infinity) in rat assessed as 2-(2-methyl-4-oxo-3-(2-(phenylsulfonyl)benzyl)-4,5,6,7-tetrahydro-1H-pyrrolo[3,2-c]pyridin-1-yl)acetic acid at 10 mg/kg, po; type: ADME, organism-based, Plasma; design: time infinity, dose 10 mg/kg, route oral; details: in vivo
Rattus norvegicus [28] = experiment: Terminal half life in rat assessed as 2-(2-methyl-4-oxo-3-(2-(phenylsulfonyl)benzyl)-4,5,6,7-tetrahydro-1H-pyrrolo[3,2-c]pyridin-1-yl)acetic acid at 10 mg/kg, po; type: ADME, organism-based; design: dose 10 mg/kg, route oral; details: in vivo
Rattus norvegicus [29] = experiment: Oral bioavailability in rat assessed as 2-(2-methyl-4-oxo-3-(2-(phenylsulfonyl)benzyl)-4,5,6,7-tetrahydro-1H-pyrrolo[3,2-c]pyridin-1-yl)acetic acid at 10 mg/kg; type: ADME, organism-based; details: in vivo
[30] = target: T1, Prostaglandin D2 receptor 2; experiment: Antagonist activity at CRTh2 (unknown origin) stably expressed in CHO.K1 cells preincubated for 1 hr by radio-labelled [35S]-GTPgammaS binding assay in presence of 4% HSA; type: functional, cell-based
[31] = Apparent permeability across basolateral to apical side of human Caco2 cells at pH 7.4; type: ADME, cell-based; details: Caco-2, pH 7.4
[32] = Aqueous solubility of the compound at pH 1; type: physicochemical
[33] = Aqueous solubility of the compound at pH 7.4; type: physicochemical
[34] = Lipophilicity, log D of the compound by shake-flask method; type: physicochemical; details: octanol/water

Row | Compound | IC50 [1] [nM] | inhibition [2] [%] | inhibition [3] [%] | pKa [4] | Papp A→B [5] [×10⁻⁶ cm/s] | IC50 [15] [nM] | IC50 [16] [nM] | IC50 [17] [nM] | IC50 [18] [nM] | IC50 [19] [nM] | IC50 [20] [nM] | T1/2 [21] [h] | further results
1 | Cc1c(Cc2ccccc2S(=O)(=O)c2ccccc2)c2c(n1CC(=O)O)CC(C)(C)NC2=O | 4 | < 30 | < 30 | 3 | 1.1 | 7.7 | 6.3 | 5.5 | 4.2 | 2.9 | 2.1 | 10 | Cmax [6]: 5490 ng/mL; clearance [7]: 8.4 mL/min/kg; AUC(0-inf) [8]: 2050 ng·h/mL; Vd [9]: 0.19 L/kg; half-life [10]: 0.8 h; Cmax [11]: 126 ng/mL; AUC(0-inf) [12]: 275 ng·h/mL; half-life [13]: 2.5 h; bioavailability [14]: 1.3%; Activity (Cavia porcellus): Active
2 | CCOC(=O)Cn1c(C)c(Cc2ccccc2S(=O)(=O)c2ccccc2)c2c1CCNC2=O | – | – | – | – | – | – | – | – | – | – | – | – | Cmax (Rattus norvegicus [22]): 5370 ng/mL; AUC (Rattus norvegicus [23]): 1726 ng·h/mL; Vdss (Rattus norvegicus [24]): 0.25 L/kg; beta t1/2 (Rattus norvegicus [25]): 0.3 h; Cmax (Rattus norvegicus [26]): 842 ng/mL; AUC (Rattus norvegicus [27]): 4623 ng·h/mL; beta t1/2 (Rattus norvegicus [28]): 7.4 h; F (Rattus norvegicus [29]): 27%
3 | Cc1c(Cc2ccccc2S(=O)(=O)c2ccccc2)c2c(n1CC(=O)O)CCNC2=O | 5 | < 30 | < 30 | 3 | 0.01 | 6.5 | 4.9 | 4.5 | 4 | 3 | 3 | 2.3 | IC50 [30]: 10 nM; Papp B→A [31]: 0.1 ×10⁻⁶ cm/s; solubility [32]: 500 µg/mL (≈ 1140 µM); solubility [33]: 870 µg/mL (≈ 1980 µM); logD [34]: 0.9

Source: ChEMBL document CHEMBL3351921, “Structure-activity relationships (SAR) and structure-kinetic relationships (SKR) of pyrrolopiperidinone acetic acids as CRTh2 antagonists” (Bioorg Med Chem Lett, 2014)
